Assay results from patent US10934310B2, “Inhibitors of Bruton's tyrosine kinase and method of their use” (JANSSEN PHARMACEUTICA NV, priority 2015, dated 2021).

Target: unphosphorylated-BTK kinase domain (UP-BTK), GST-tagged human BTK (389-659aa) (Homo sapiens (Human), UniProt Q06187)
Assay: BTK Kinase Lanthascreen Binding Assay
Settings: for BTK_I_binding pIC50: pIC50 = negative log of the IC50 in molar
Description: BTK Kinase Lanthascreen Binding Assay:
A BTK kinase lanthascreen binding assay monitors compound binding to unphosphorylated-BTK kinase domain (UP-BTK), by competing with a fluorescent labeled tracer. […] Data were analyzed using Xlfit™ version 5.3 from ID Business Solutions (Guildford), Microsoft Excel add-in. pIC50 refers to the negative log of the IC50 in molar.

[1] = Lanthascreen binding, 60 minutes incubation
[2] = compound, 50 nM Tracer 236, 2 nM anti-GST antibody, 60 minutes

unphosphorylated-BTK kinase domain (UP-BTK), GST-tagged human BTK (389-659aa), sequence (Q06187 389-659): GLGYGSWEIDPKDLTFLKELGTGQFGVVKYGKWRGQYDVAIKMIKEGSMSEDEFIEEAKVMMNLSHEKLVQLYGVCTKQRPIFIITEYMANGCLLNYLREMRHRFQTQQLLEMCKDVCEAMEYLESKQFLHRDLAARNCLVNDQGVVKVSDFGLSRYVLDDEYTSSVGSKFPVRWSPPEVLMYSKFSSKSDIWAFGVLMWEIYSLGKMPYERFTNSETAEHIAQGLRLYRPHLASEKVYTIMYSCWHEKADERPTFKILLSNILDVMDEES

Compound | BTK_I_binding pIC50 [1] | BTK_I_binding pIC50 [2] | other results
CC(=O)N[C@H]1CCC[C@H]1NC(=O)c1sc2nccc3c2c1NC(=O)N3c1ccc(Oc2ccccc2)nc1C (single isomer, unassigned) [Example 345, N-((1R,2S)-2-Acetamidocyclopentyl)-5-(*S)-(2-methyl-6-phenoxypyridin-3-yl)-4-oxo-4,5-dihydro-3H-1-thia-3,5,8-triazaacenaphthylene-2-carboxamide] | 6.09 | – | –
Cc1cc(Oc2ccccc2)ccc1N1C(=O)Nc2c(C(=O)N[C@H]3CCC[C@@H]3N)sc3nccc1c23 [Example 41, N-((1S,2S)-2-Aminocyclopentyl)-5-(2-methyl-4-phenoxyphenyl)-4-oxo-4,5-dihydro-3H-1-thia-3,5,8-triazaacenaphthylene-2-carboxamide] | – | 6.37 | –
CC(=O)N[C@H]1CC[C@H](NC(=O)c2sc3nccc4c3c2NC(=O)N4c2cnc(Oc3ccccc3)cc2C)C1 (single isomer, unassigned) [Example 395, N-((1S,3S)-3-Acetamidocyclopentyl)-5-(*S)-(4-methyl-6-phenoxypyridin-3-yl)-4-oxo-4,5-dihydro-3H-1-thia-3,5,8-triazaacenaphthylene-2-carboxamide] | 6.66 | – | –
C=CC(=O)N[C@H]1CCC[C@H]1NC(=O)c1sc2nccc3c2c1NC(=O)N3c1cnc(Oc2cncnc2)cc1C [Example 486, N-((1R,2S)-2-Acrylamidocyclopentyl)-5-(4-methyl-6-(pyrimidin-5-yloxy)pyridin-3-yl)-4-oxo-4,5-dihydro-3H-1-thia-3,5,8-triazaacenaphthylene-2-carboxamide] | 7.39 | – | –
CN[C@H]1CCN(C(=O)c2sc3nccc4c3c2NC(=O)N4c2ccc(Oc3ccccc3)cc2C)C1 [Example 417, (S)-5-(2-Methyl-4-phenoxyphenyl)-2-(3-(methylamino)pyrrolidine-1-carbonyl)-3H-1-thia-3,5,8-triazaacenaphthylen-4(5H)-one] | 5.89 | – | –
Cc1cc(Oc2ccccc2)ccc1N1C(=O)Nc2c(C(=O)N[C@H]3CC[C@@H](N(C)C)C3)sc3nccc1c23 [Example 73, N-((1S,3R)-3-(Dimethylamino)cyclopentyl)-5-(2-methyl-4-phenoxyphenyl)-4-oxo-4,5-dihydro-3H-1-thia-3,5,8-triazaacenaphthylene-2-carboxamide] | – | 7.00 | –
N[C@H]1CCC[C@H]1NC(=O)c1sc2nccc3c2c1NC(=O)N3c1ccc(Oc2ccccc2)nc1 [Example 265, N-((1R,2S)-2-Aminocyclopentyl)-4-oxo-5-(6-phenoxypyridin-3-yl)-4,5-dihydro-3H-1-thia-3,5,8-triazaacenaphthylene-2-carboxamide] | – | 6.24 | –
C=CC(=O)N[C@H]1CCC[C@H]1NC(=O)c1sc2nccc3c2c1NC(=O)N3c1ccc(Oc2ccccc2)cc1 [Example 104, N-((1R,2S)-2-acrylamidocyclopentyl)-4-oxo-5-(4-phenoxyphenyl)-4,5-dihydro-3H-1-thia-3,5,8-triazaacenaphthylene-2-carboxamide] | – | 8.37 | –
C=CC(=O)N[C@@H]1CCC[C@H]1NC(=O)c1sc2nccc3c2c1NC(=O)N3c1ccnc(-c2ccccn2)c1 [Example 342, 5-([2,2′-Bipyridin]-4-yl)-N-((1R,2R)-2-acrylamidocyclopentyl)-4-oxo-4,5-dihydro-3H-1-thia-3,5,8-triazaacenaphthylene-2-carboxamide] | 6.12 | – | –
C=CC(=O)N[C@H]1CCC[C@H]1NC(=O)c1sc2nccc3c2c1NC(=O)N3c1cnc(Oc2ncccn2)cc1C [Example 465, N-((1R,2S)-2-Acrylamidocyclopentyl)-5-(4-methyl-6-(pyrimidin-2-yloxy)pyridin-3-yl)-4-oxo-4,5-dihydro-3H-1-thia-3,5,8-triazaacenaphthylene-2-carboxamide] | 7.25 | – | –
C=CC(=O)N[C@@H]1CCC[C@H]1NC(=O)c1sc2nccc3c2c1NC(=O)N3c1cnc(Oc2ccccc2)nc1 [Example 314, N-((1R,2R)-2-Acrylamidocyclopentyl)-4-oxo-5-(2-phenoxypyrimidin-5-yl)-4,5-dihydro-3H-1-thia-3,5,8-triazaacenaphthylene-2-carboxamide] | 7.14 | – | –
CNCC(=O)N[C@@H]1CC[C@H](NC(=O)c2sc3nccc4c3c2NC(=O)N4c2ccc(OC(C)C)cc2C)C1 [Example 161, 5-(4-Isopropoxy-2-methylphenyl)-N-((1S,3R)-3-(2-(methylamino)acetamido)cyclopentyl)-4-oxo-4,5-dihydro-3H-1-thia-3,5,8-triazaacenaphthylene-2-carboxamide] | – | – | IC50 (read-out: BTK_I_binding pIC50 (converted)): > 1000 nM
Cc1cc(Oc2ccccc2)ccc1N1C(=O)Nc2c(C(=O)N[C@H]3CC[C@@H](O)C3)sc3nccc1c23 [Example 74, N-((1S,3R)-3-Hydroxycyclopentyl)-5-(2-methyl-4-phenoxyphenyl)-4-oxo-4,5-dihydro-3H-1-thia-3,5,8-triazaacenaphthylene-2-carboxamide] | – | 7.07 | –
O=C(NCC1(O)CCCCC1)c1sc2nccc3c2c1NC(=O)N3c1ccc(Oc2ccccc2)cc1 [Example 152, N-((1-Hydroxycyclohexyl)methyl)-4-oxo-5-(4-phenoxyphenyl)-4,5-dihydro-3H-1-thia-3,5,8-triazaacenaphthylene-2-carboxamide] | – | 6.25 | –
O=C(N[C@H]1CCC[C@H](O)C1)c1sc2nccc3c2c1NC(=O)N3c1ccc(Oc2ccccc2)cc1 [Example 143, N-((1S,3S)-3-Hydroxycyclohexyl)-4-oxo-5-(4-phenoxyphenyl)-4,5-dihydro-3H-1-thia-3,5,8-triazaacenaphthylene-2-carboxamide] | – | 6.75 | –
C=CC(=O)N[C@H]1CCC[C@H]1NC(=O)c1sc2nccc3c2c1NC(=O)N3c1ccc(Oc2ccccn2)cc1 [Example 437, N-((1R,2S)-2-Acrylamidocyclopentyl)-4-oxo-5-(4-(pyridin-2-yloxy)phenyl)-4,5-dihydro-3H-1-thia-3,5,8-triazaacenaphthylene-2-carboxamide] | 8.38 | – | –
C=CC(=O)N[C@H]1CC[C@@H](NC(=O)c2sc3nccc4c3c2NC(=O)N4c2cnc(OC3CCCC3)cc2C)C1 (single isomer, unassigned) [Example 366, N-((1R,3S)-3-Acrylamidocyclopentyl)-5-(*S)-(6-(cyclopentyloxy)-4-methylpyridin-3-yl)-4-oxo-4,5-dihydro-3H-1-thia-3,5,8-triazaacenaphthylene-2-carboxamide] | 8.07 | – | –
Cc1cc(Oc2ccccc2)ncc1N1C(=O)Nc2c(C(=O)N[C@@H]3CCCC[C@H]3N)sc3nccc1c23 (single isomer, unassigned) [Example 255, N-((1R,2R)-2-Aminocyclohexyl)-5-(*S)-(4-methyl-6-phenoxypyridin-3-yl)-4-oxo-4,5-dihydro-3H-1-thia-3,5,8-triazaacenaphthylene-2-carboxamide] | – | 6.51 | –
Cc1cc(Oc2ccccc2)ccc1N1C(=O)Nc2c(C(=O)N[C@H]3CC[C@@H](NC#N)CC3)sc3nccc1c23 [Example 23, N-((1S,4S)-4-Cyanamidocyclohexyl)-5-(2-methyl-4-phenoxyphenyl)-4-oxo-4,5-dihydro-3H-1-thia-3,5,8-triazaacenaphthylene-2-carboxamide] | – | 6.77 | –
Cc1cc(Oc2ccccc2)ccc1N1C(=O)Nc2c(C(=O)N[C@H]3CCC[C@H](NC(=O)CN)C3)sc3nccc1c23 (single isomer, unassigned) [Example 251, N-((1R,3S)-3-(2-Aminoacetamido)cyclohexyl)-5-(*S)-(2-methyl-4-phenoxyphenyl)-4-oxo-4,5-dihydro-3H-1-thia-3,5,8-triazaacenaphthylene-2-carboxamide] | – | 6.71 | –
Cc1cc(CC(C)C)ncc1N1C(=O)Nc2c(C(=O)N[C@@H]3CCCC[C@@H]3N)sc3nccc1c23 (single isomer, unassigned) [Example 335, N-((1R,2S)-2-Aminocyclohexyl)-5-(*S)-(6-isobutyl-4-methylpyridin-3-yl)-4-oxo-4,5-dihydro-3H-1-thia-3,5,8-triazaacenaphthylene-2-carboxamide] | 6.38 | – | –
Cc1cc(Oc2ccccc2)ccc1N1C(=O)Nc2c(C(=O)NC3CCCC3)sc3nccc1c23 [Example 28, N-Cyclopentyl-5-(2-methyl-4-phenoxyphenyl)-4-oxo-4,5-dihydro-3H-1-thia-3,5,8-triazaacenaphthylene-2-carboxamide] | – | 6.67 | –
CC(=O)N[C@H]1CCC[C@H](NC(=O)c2sc3nccc4c3c2NC(=O)N4c2cnc(Oc3ccccc3)cc2C)C1 (single isomer, unassigned) [Example 400, N-((1S,3S)-3-Acetamidocyclohexyl)-5-(*S)-(4-methyl-6-phenoxypyridin-3-yl)-4-oxo-4,5-dihydro-3H-1-thia-3,5,8-triazaacenaphthylene-2-carboxamide] | 6.46 | – | –
Cc1cc(Oc2ccccc2)ccc1N1C(=O)Nc2c(C(=O)N[C@H]3CC[C@@H](O)CC3)sc3nccc1c23 [Example 16, N-((1S,4S)-4-Hydroxycyclohexyl)-5-(2-methyl-4-phenoxyphenyl)-4-oxo-4,5-dihydro-3H-1-thia-3,5,8-triazaacenaphthylene-2-carboxamide] | – | 7.14 | –
Cc1cc(Oc2ccccc2)ccc1N1C(=O)Nc2c(C(=O)N[C@H]3CC[C@H](O)CC3)sc3nccc1c23 (single isomer, unassigned) [Example 85, N-((1R,4R)-4-Hydroxycyclohexyl)-5-(*S)-(2-methyl-4-phenoxyphenyl)-4-oxo-4,5-dihydro-3H-1-thia-3,5,8-triazaacenaphthylene-2-carboxamide] | – | 7.67 | –
O=C(N[C@@H]1CCC[C@H](O)C1)c1sc2nccc3c2c1NC(=O)N3c1ccc(Oc2ccccc2)cc1 [Example 142, N-((1R,3S)-3-Hydroxycyclohexyl)-4-oxo-5-(4-phenoxyphenyl)-4,5-dihydro-3H-1-thia-3,5,8-triazaacenaphthylene-2-carboxamide] | – | 6.87 | –
